One substance from patent US6348317B1, “Fluorescent and DNA cleavage properties of peptide/dye conjugates” (The Arizona Board of Regents, priority 1999, dated 2002) can be followed below.

Experiment [1] relates to 5′-32P-end-labeled GRE2 duplex DNA. The experiment in a line: Radical hydroxyl footprinting. It is filed as binding. As to conditions: 60 minutes in the dark at 25° C., 60 seconds reaction. How it is done: The protocol for radical hydroxyl footprinting reactions was adapted from previously established methods, A. Revzin, Ed., Separation, Detection and Characterization of Biological Macromolecules (1993); P. E. Nielsen, J. Molec. Recog. 3:1-25 (1990). Reaction samples comprised of the TO-ZF and 5′^-32P-end-labeled GRE2 in 20 mM Tris (pH 7.9), 40 mM NaCl, 20 mM KCl, 1 mM MgCl2 were allowed to equilibrate in the dark at room temperature for 60 minutes. Equal volumes of a freshly prepared solution of 0.2 mM [Fe(EDTA)]^2− was mixed with a 0.3% H2O2 solution and a 10 mM sodium ascorbate solution and added to the reaction sample. After a one minute incubation, the reactions were quenched with an aqueous solution of 20 mM thiourea and 10 mg/ml tRNA. The footprinting reactions were analyzed on a 15% denaturing polyacrylamide gel.
Footprinting of TO-ZF Conjugate. DNA footprinting by the TO-ZF conjugate was performed to determine if the TO-ZF conjugate was binding the same sequence as the native glucocorticoid receptor protein DNA-binding domain. More specifically, reaction samples (Maxam-Gilbert A+G and C+T sequencing reactions, radical hydroxyl cleavage of GRE2 in the presence of TO-ZF, radical hydroxyl cleavage of GRE2 in the absence of TO-ZF) contained […] duplex DNA and […] TO-ZF, 20 mM Tris (pH 7.9), 40 mM NaCl, 20 mM KCl, 1 mM MgCl2. […]

The next experiment deals with GRE2 dsDNA. The experiment in a line: Photocleavage at 514 nm, intensity dependence of guanine oxidation. As to conditions: 160 nM duplex DNA, 200 nM TO-ZF, piperidine. It is filed as biochemical. As to the method: The purified DNA strands shown in FIG. 2 were 5′^-32P-end-labeled using T4 polynucleotide kinase and purified as described above. Oxygen removal was performed by bubbling argon through the samples. Irradiations were performed on […] samples in a 1.0 mL glass cuvette fit with a septum using an argon-ion laser at 514 nm with a power of 300 mW/cm^2. After irradiation, samples were divided in half and one portion treated with piperidine, the other immediately frozen. Piperidine treatment consisted of adding an equal volume of freshly prepared 20% piperidine in water to the sample followed by heating at 90° C. for 30 minutes. Both the treated and untreated fractions were dried under vacuum. To each dried sample was added […] of 80% formamide in water. The products of the photocleavage experiments were analyzed on a 15% polyacrylamide (19:1) vertical sequencing gel with dimensions 21 cm×40 cm×0.4 mm. […] Gels were dried and exposed to a phosphorimaging screen for 4 hours and analyzed on a Molecular Dynamics Storm-840 gel scanner in phosphorimaging mode.
Photocleavage of TO-ZF conjugate. […] After irradiation of TO-ZF bound to dsDNA in Tris buffer solution at 514 nm (514 nm is in the main band of the absorbance spectrum of intercalated thiazole orange as shown in FIG. 3), the photo-products were denatured and separated using denaturing polyacrylamide gel electrophoresis (PAGE). […]

With “TO-ZF: 29 amino acid single zinc finger from residues 438-465 of glucocorticoid receptor, thiazole orange coupled to a lysine ε-amine”, in experiment [1], the “region protected from radical hydroxyl cleavage” value is “protects a four base pair region (TTCT) within the native GRE binding sequence”. In addition, the “preferential site of photocleavage” value in the experiment with GRE2 dsDNA is “Preferential cleavage is observed at the 5′-G of the GG sequence”.
